Laboratory results taken from patent publication US12091398B2, “PD-L1 antagonist compound” (ADLAI NORTYE BIOPHARMA CO., LTD., priority 2019, dated 2024).

test system: PD-1/PD-L1 interaction; assay: Cell based PD-1/PD-L1 NFAT reporter assay; design: species or system human; settings: Homo sapiens, 6 h, PD-1/NFAT-Reporter-Jurkat cells co-cultured with TCR activator/PD-L1-CHO cells; 6 hour incubation; luciferase; calibrated to Atezolizumab 10 nM; read-out: Absolute EC50
Method: Cell Based PD-1/PD-L1 NFAT Reporter Assay
Compounds of the present patent were tested in a cell based PD-1/PD-L1 NFAT reporter assay.
The cell-based luciferase reporter assay is used for monitoring the PD-1/PD-L1 inhibitor by characterizing the biological activity of PD-1: PD-L1 interactions in cellular context. PD-1/NFAT-Reporter-Jurkat cells stably over-expressing human PD-1 with NFAT reporter are used as effector cells. TCR activator/PD-L1—CHO cells over-expressing PD-L1 and an engineered T cell receptor (TCR) activator are used as target cells. When these two cells are co-cultivated, TCR complexes on effector cells are activated by TCR activator on target cells, resulting in expression of the NFAT luciferase reporter. However, PD1 and PD-L1 (or PD-L2) ligation prevents TCR activation and suppresses the NFAT-responsive luciferase activity. This inhibition can be specifically reversed by anti-PD1 or anti-PD-L1 inhibitors. PD1/PD-L1 inhibitors block PD1:PD-L1 interaction and promote TCR activation, resulting in reactivation of the NFAT responsive luciferase reporter.
PD-1/NFAT—Reporter—Jurkat cell (Cat: 60535) and TCR activator/PD-L1—CHO cell (Cat: 60536) were purchased from BPS Bioscience. Anti-human PD-L1 antibody (Atezolizumab, Cat: A2004) was purchased from Selleck; luciferase reporter gene expression detection kit (ONE-Glo™ Luciferase Assay System, Cat: E6120) was purchased from Promega; multifunction plate reader (SpectraMax i3x) was purchased from Molecular Devices.
PD-1/NFAT—Reporter—Jurkat cells and TCR activator/PD-L1—CHO cells were cultured in recommended media respectively.
Harvest TCR activator/PD-L1-CHO cells from culture and seed cells at a density of 35,000 cells per well into 96-well microplate in 100 µl of growth medium. Incubate cells at 37° C. in a CO2 incubator overnight. Next day, discard the culture media, add diluted compound in assay medium for 30 min. Anti-PD-L1 antibody (Atezolizumab, final concentration 10 nM) and 0.1% DMSO were the positive and negative control, respectively. Harvest the PD-1/NFAT-reporter-Jurkat cells by centrifugation and add to the wells. After 6 hour incubation, perform luciferase assay using the ONE-Glo™ Luciferase Assay System, following the manufacturer's assay protocol.
Anti-PD-L1 antibody (Atezolizumnab, 10 nM) was used as positive control to calibrate the inhibition rate using the following equation: % inhibition=(Sample luminescence/Average vehicle group luminescence−1)/(Average PD-L1 group luminescence/Average vehicle group luminescence−1)×100%.

EC50 [nM]	Structure (SMILES)
261	O=C1CC[C@@H](COc2cc(OCc3cccc(-c4cccc5c4cnn5CCCCN4CC[C@@H](O)C4)c3Br)c(Cl)cc2CN[C@@H](CO)C(=O)O)N1 [Compound 47]
124	N#Cc1cncc(COc2cc(Cn3ncc4c(-c5cccc6c5cnn6Cc5cc(OCc6cncc(C#N)c6)c(CN[C@@H](CO)C(=O)O)cc5Cl)cccc43)c(Cl)cc2CN[C@@H](CO)C(=O)O)c1 [Compound 61, (2S,2'S)-2,2′-((((1H,1′H-[4,4′-biindazole]-1,1′-diylbis(methylene))bis(5-chloro-2-((5-cyanopyridin-3-yl)methoxy)-4,1-phenylene))bis(methylene))bis(azanediyl))bis(3-hydroxypropanoic acid)]
3080	NC(=O)CNC(=O)COc1cc(OCc2cccc(-c3cccc4c3cnn4CCCCN3CC[C@@H](O)C3)c2Br)c(Cl)cc1CN[C@@H](CO)C(=O)O [Compound 51]
> 10000	CN(C)c1c(COc2cc(OCc3cncc(C#N)c3)c(CN[C@@H](CO)C(=O)O)cc2Cl)cccc1-c1cccc2c1cnn2CCCCN1CC[C@@H](O)C1 [Compound 31]
163	COc1cc(OCc2cccc(-c3cccc4c3cnn4Cc3cc(OCc4cncc(C#N)c4)c(CN[C@@H](CO)C(=O)O)cc3Cl)c2C)c(Cl)cc1CN[C@@H](CO)C(=O)O [Compound 56, (4-((3-(1-(4-((((S)-1-carboxy-2-hydroxyethyl)amino)methyl)-2-chloro-5-((5-cyanopyridin-3-yl)methoxy)benzyl)-1H-indazol-4-yl)-2-methylbenzyl)oxy)-5-chloro-2-methoxybenzyl)-L-serine]
412	CC(CO)(NCc1cc(Cl)c(OCc2cccc(-c3cccc4c3cnn4CCCN3CC[C@@H](O)C3)c2Br)cc1OCc1cncc(C#N)c1)C(=O)O (stereo partly shown) [Compound 10]
846	CN1CCC(COc2cc(OCc3cccc(-c4cccc5c4cnn5CCCCN4CC[C@@H](O)C4)c3Br)c(Cl)cc2CN[C@@H](CO)C(=O)O)CC1 [Compound 46]
157	COc1cc(OCc2cccc(-c3cccc4c3cnn4Cc3cc(OCc4cncc(C#N)c4)c(CNC[C@@H]4CCC(=O)N4)cc3Cl)c2C)c(Cl)cc1CNC[C@@H]1CCC(=O)N1 [Compound 69, 5-((4-chloro-5-((4-(3-((2-chloro-5-methoxy-4-(((((S)-5-oxopyrrolidin-2-yl)methyl)amino)methyl)phenoxy)methyl)-2-methylphenyl)-1H-indazol-1-yl)methyl)-2-(((((S)-5-oxopyrrolidin-2-yl)methyl)amino)methyl)phenoxy)methyl)nicotinonitrile]
7640	NC(=O)COc1cc(OCc2cccc(-c3cccc4c3cnn4CCCCN3CC[C@@H](O)C3)c2Br)c(Cl)cc1CN[C@@H](CO)C(=O)O [Compound 38]
1030	Cc1c(OCCCN2CC[C@@H](O)C2)cccc1-c1ccnc2c1cnn2Cc1cc(OCc2cncc(C#N)c2)c(CN[C@@H](CO)C(=O)O)cc1Cl [Compound 88, (5-chloro-2-((5-cyanopyridin-3-yl)methoxy)-4-((4-(3-(3-((R)-3-hydroxypyrrolidin-1-yl)propoxy)-2-methylphenyl)-1H-pyrazolo[3,4-b]pyridin-1-yl)methyl)benzyl)-L-serine]
2700	COc1cc(OCc2cccc(-c3cccc4c3cnn4Cc3cc(OCc4cncc(C#N)c4)c(CN[C@@H](CO)C(=O)O)cc3Cl)c2C)c(Cl)cc1CN [Compound 74]
606	O=C(O)[C@H](CO)NCc1cc(Cl)c(OCc2cccc(-c3cccc4c3cnn4CCCCN3CC[C@@H](O)C3)c2Br)cc1OCc1cncc(Cl)c1 [Compound 41]
340	N#Cc1cc(COc2cc(OCc3cccc(-c4cccc5c4cnn5CCCN4CC[C@@H](O)C4)c3Br)c(Cl)cc2CN[C@@H](CO)C(=O)O)ccn1 [Compound 1]
266	N#Cc1cncc(COc2cc(OCc3cccc(-c4cccc5c4cnn5CCCN4CCC(O)CC4)c3Br)c(Cl)cc2CN[C@@H](CO)C(=O)O)c1 [Compound 6]
518	COc1cc(Cn2ccc3c(-c4cccc(-c5ccc(CNC[C@@H]6CCC(=O)N6)cc5)c4Cl)cccc32)c(Cl)cc1CN[C@@H](CO)C(=O)O [Compound 91, (5-chloro-4-((4-(2-chloro-4′-(((((S)-5-oxopyrrolidin-2-yl)methyl)amino)methyl)-[1,1′-biphenyl]-3-yl)-1H-indol-1-yl)methyl)-2-methoxybenzyl)-L-serine]
550	Cc1c(COc2cc(OCc3cncc(C#N)c3)c(CN[C@@H](CO)C(=O)OC(C)C)cc2Cl)cccc1-c1cccc2c1cnn2Cc1cc(OCc2cncc(C#N)c2)c(CN[C@@H](CO)C(=O)O)cc1Cl [Compound 64, (5-chloro-4-((4-(3-((2-chloro-5-((5-cyanopyridin-3-yl)methoxy)-4-((((S)-3-hydroxy-1-isopropoxy-1-oxopropan-2-yl)amino)methyl)phenoxy)methyl)-2-methylphenyl)-1H-indazol-1-yl)methyl)-2-((5-cyanopyridin-3-yl)methoxy)benzyl)-L-serine]
9360	CC(CO)(CO)NCc1cc(Cl)c(OCc2cccc(-c3cccc4c3cnn4CCCCNCCO)c2Br)cc1OCc1cncc(C#N)c1 [Compound 16]
1920	N#CCCCCCOc1cc(OCc2cccc(-c3cccc4c3cnn4CCCCN3CC[C@@H](O)C3)c2Br)c(Cl)cc1CN[C@@H](CO)C(=O)O [Compound 37]
214	N#Cc1cncc(COc2cc(OCc3cccc(-c4cccc5c4cnn5CCCCNC[C@@H]4CCC(=O)N4)c3Br)c(Cl)cc2CN[C@@H](CO)C(=O)O)c1 [Compound 86]
764	N#Cc1cncc(COc2cc(OCc3cccc(-c4cccc5c4cnn5CC4CCC(N5CC[C@@H](O)C5)CC4)c3Br)c(Cl)cc2CN[C@@H](CO)C(=O)O)c1 (stereo partly shown) [Compound 19]
5450	Cc1c(OCCCN2CC[C@@H](O)C2)cccc1-c1cncc2c1cnn2Cc1cc(OCc2cncc(C#N)c2)c(CN[C@@H](CO)C(=O)O)cc1Cl [Compound 89, (5-chloro-2-((5-cyanopyridin-3-yl)methoxy)-4-((4-(3-(3-((R)-3-hydroxypyrrolidin-1-yl)propoxy)-2-methylphenyl)-1H-pyrazolo[3,4-c]pyridin-1-yl)methyl)benzyl)-L-serine]
> 370	N#Cc1cncc(COc2cc(OCc3cccc(-c4cccc5c4cnn5CCCCN4CC[C@@H](O)C4)c3Br)c(Cl)cc2CN2CC[C@H](O)C2)c1 [Compound 79]
348	COc1cc(OCc2cccc(-c3cccc4c3cnn4Cc3cc(OCc4cncc(C#N)c4)c(CNCCO)cc3Cl)c2C)c(Cl)cc1CNCCO [Compound 68, 5-((4-chloro-5-((4-(3-((2-chloro-4-(((2-hydroxyethyl)amino)methyl)-5-methoxyphenoxy)methyl)-2-methylphenyl)-1H-indazol-1-yl)methyl)-2-(((2-hydroxyethyl)amino)methyl)phenoxy)methyl)nicotinonitrile]
3540	CC(CO)(CO)NCc1cc(Cl)c(OCc2cccc(-c3cncc4c3cnn4CCCCN3CC[C@@H](O)C3)c2Br)cc1OCc1cncc(C#N)c1 [Compound 21]
1600	COc1cc(OCc2cccc(-c3cccc4c3c(C)nn4Cc3cc(OCc4cncc(C#N)c4)c(CN[C@@H](CO)C(=O)O)cc3Cl)c2C)c(Cl)cc1CN[C@@H](CO)C(=O)O [Compound 78]
5780	N#CCOc1cc(OCc2cccc(-c3cccc4c3cnn4CCCCN3CC[C@@H](O)C3)c2Br)c(Cl)cc1CN[C@@H](CO)C(=O)O [Compound 34]

same assay, conditions: Homo sapiens; PD-1/NFAT-Reporter-Jurkat cells co-cultured with TCR activator/PD-L1-CHO cells; 6 hour incubation; luciferase; calibrated to Atezolizumab 10 nM; read-out: Absolute EC50

Structure (SMILES)	EC50 [nM]
CN1CCC2(CC1)CCN(c1cccc(-c3cccc4c3cnn4Cc3cc(OCc4cncc(C#N)c4)c(CN[C@@H](CO)C(=O)O)cc3Cl)c1Cl)CC2 [Compound 96, (5-chloro-4-((4-(2-chloro-3-(9-methyl-3,9-diazaspiro[5.5]undecan-3-yl)phenyl)-1H-indazol-1-yl)methyl)-2-((5-cyanopyridin-3-yl)methoxy)benzyl)-L-serine]	2450

same assay, conditions: PD-1/NFAT-Reporter-Jurkat cells co-cultured with TCR activator/PD-L1-CHO cells; 6 hour incubation; luciferase; calibrated to Atezolizumab 10 nM; read-out: Absolute EC50

EC50 [nM]	Structure (SMILES)
724	N#Cc1cncc(COc2cc(OCc3cccc(-c4cccc5c4cnn5CCCN4CC[C@@H](O)C4)c3Br)c(Cl)cc2CN[C@@H](CO)C(=O)O)c1 [Compound 32]
